Reference: patent US20210246164A1, “PEPTIDIC PROTEIN KINASE C INHIBITORS AND USES THEREOF” (UNIVERSITE DE GENEVE, priority 2016, published 2021)
Where a SMILES comes first, the peptide text is derived from it. The star is where a group is joined. Myristoyl = CCCCCCCCCCCCCC(=O)*

Experiments:
[1] = tested on: TJ proteins occludin and ZO-1 in primary human bronchial epithelial cell monolayers; test: Immunofluorescence of TJ proteins occludin and ZO-1, bronchial cells (confocal microscopy); format: cell-based; settings: 50 μM peptide, 2 hours
Protocol: The effect of peptides of the invention on the tight junction structure of human primary nasal and bronchial epithelial cells were evaluated by confocal microscopy as follows. Mucilair™ human primary nasal and bronchial epithelial cells (Epithelix Sarl, Geneva, Switzerland) were incubated with 50 μM of peptide of the invention P1 or comparative peptides C1 and C2 for 2 hours and washed twice with phosphate buffered saline (PBS) (without Ca^2+/Mg^2+) at 37° C. Cells were fixed with methanol/acetone (50:50) for 5 minutes at […], air-dried, and washed with TBST (mixture of tris-buffered saline (TBS) and Polysorbate 20). Cell monolayers were blocked using a solution of 3% bovine serum albumin (BSA) in PBS for 60 minutes at room temperature and incubated with primary antibody against occludin (Cat: 331588, Invitrogen, Zug, Switzerland); dilution (1:200)) and ZO-1 (zonula occludens-1 protein) (Cat: 339194, Invitrogen, Zug, Switzerland); dilution (1:200)) in dilution buffer. Samples were mounted (Vectashield mounting media with DAPI (4′,6-diamidino-2-phenylindole); Vector Laboratories) and assessed within the next 24 hours by using a laser-scanning confocal microscope (CLSM; Plan-Apochromat 63/1.40 (oil) DIC objective, Zeiss Axiovert 100M-LSM 510; Carl Zeiss, Oberkochen, Germany). […]

[2] = tested on: Caco-2 cells; test: Cell viability, WST-1 based colorimetric assay; settings: 24 hours
Protocol: Viability of Caco-2 cells (human intestinal epithelial cell line) was determined by a cell proliferation assay using WST-1 based colorimetric assay. […] WST-1 reagent (diluted 1:10 in cell culture medium) was added as described in the instruction manual (Roche Diagnostics GMBH, Mannheim, Germany). Following 1-3 h incubation at 37° C. with the peptides or controls, absorbance at 450 nm (reference at 690 nm) was measured by a BioTek Synergy Mx plate reader. Percentage of cell viability was calculated based on the absorbance measured relative to that of cells exposed to only culture medium (control group). Sodium dodecyl sulfate (SDS) at 2% was used as a positive control for cell toxicity.

CCCCCCCCCCCCCC(=O)N[C@@H](C)C(=O)N[C@@H](CCCNC(=N)N)C(=O)N[C@@H](CCCNC(=N)N)C(=O)N[C@@H](Cc1c[nH]c2ccccc12)C(=O)N[C@@H](CCCNC(=N)N)C(=O)O [Peptide P1, Myr-ARRWR] (Myristoyl-ARRWR-OH)
redistribution of occludin and ZO-1 [1]: causes desired TJ proteins redistribution | toxicity on Caco-2 cells ([2]; 50 μM): did not show any toxicity | concentration non-toxic to cells [2]: at least 50 μM
